In US20170067909A1, “ASSAY-READY RECOMBINANT CELLS TRANSIENTLY OVEREXPRESSING GENES ENCODING DRUG TRANSPORTER PROTEINS AND/OR DRUG METABOLIZING ENZYMES” (Corning Incorporated, priority 2012, published 2017):
Positions count from the first letter of the chain named.

Key:
[1] = molecular target: T1, OATP1B1*15 (Homo sapiens, UniProt Q9Y6L6, N130D/V174A); assay: OATP1B1 single nucleotide polymorphism panel uptake assay, OATP1B1*15 HEK-293 cells
T1 sequence (Q9Y6L6 1-691 N130D/V174A): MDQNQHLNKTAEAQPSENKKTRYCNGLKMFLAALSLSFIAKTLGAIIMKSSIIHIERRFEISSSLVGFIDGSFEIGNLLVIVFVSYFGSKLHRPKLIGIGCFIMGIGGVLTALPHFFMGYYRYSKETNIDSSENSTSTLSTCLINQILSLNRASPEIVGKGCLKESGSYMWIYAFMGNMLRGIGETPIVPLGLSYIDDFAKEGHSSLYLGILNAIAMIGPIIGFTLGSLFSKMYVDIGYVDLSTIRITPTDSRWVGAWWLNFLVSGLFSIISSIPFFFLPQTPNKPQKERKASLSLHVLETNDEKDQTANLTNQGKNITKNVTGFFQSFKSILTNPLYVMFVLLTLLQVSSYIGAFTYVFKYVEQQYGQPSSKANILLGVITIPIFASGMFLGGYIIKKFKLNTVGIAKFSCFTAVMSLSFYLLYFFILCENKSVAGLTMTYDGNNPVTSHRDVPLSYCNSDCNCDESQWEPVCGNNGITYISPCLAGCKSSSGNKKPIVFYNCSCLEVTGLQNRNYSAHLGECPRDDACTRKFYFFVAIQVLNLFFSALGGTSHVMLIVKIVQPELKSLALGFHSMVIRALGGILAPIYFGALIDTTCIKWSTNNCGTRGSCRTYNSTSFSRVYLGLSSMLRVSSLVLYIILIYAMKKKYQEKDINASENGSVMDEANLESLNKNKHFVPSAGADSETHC

[2] = molecular target: T2, Organic Anion-Transporting Polypeptide 1B1 (Homo sapiens, UniProt Q9Y6L6); assay: Suspension assay, vacuum manifold, Corning TransportoCells OATP1B1*1a; assay type: in vitro ADME; conditions: 5× substrate solution containing 25 μM, 10 minutes at 37° C., 600 k cells/well
T2 construct: host or cells: HEK293 cells, gene delivered by electroporation
T2 sequence (Q9Y6L6 1-691): T1 sequence (Q9Y6L6 1-691 N130D/V174A) with D130N, A174V
Source text: In this experiment, a suspension assay for characterizing the activity of a drug transporter protein in cryopreserved, Corning® TransportoCells™ was developed. More specifically, the use of a centrifugation method versus a vacuum manifold for separating unreacted substrate in characterizing the activity of Organic Anion-Transporting Polypeptide 1B1 was investigated. Corning® TransportoCells™ transiently transfected with the gene OATP1B1*1a were obtained from Corning Life Sciences (Cat. No. 354859). In the Corning® TransportoCells™, the gene OATP1B1*1a was delivered into HEK293 cells via electroporation and the HEK293 cells were recovered and cryopreserved 1 hour post-electroporation. In order to obtain suitable expression of the Organic Anion-Transporting Polypeptide 1B1 encoded by OATP1B1*1a, the Corning® TransportoCells™ were thawed, cultured, and harvested.
The cells were cultured in T-175 Vented-Cap Culture Flasks with Poly-D-Lysine (hereinafter, “PDL”; available from Corning Life Sciences, Cat. No. 354539) with plating medium for 48 hours at 37° C. and 8% CO2. The plating medium is detailed in Table 16. After 24 hours, sodium butyrate (obtained from Sigma) was added to the cells to reach final 5 mM. After 48 hours, the cells were rinsed twice with Phosphate-Buffered Saline (hereinafter, “PBS”, obtained from Corning).
The cells were then harvested with 0.05% Trypsin (obtained from Sigma) and washed once with Hank's Balanced Salt Solution (hereinafter, “HBSS”) buffer (with Ca^2+ and Mg^2+, obtained from Corning). Then, the cells were resuspended in HBSS (obtained from Corning) to a final cell density of 3×10^6 cells/ml. […]
Then, the cells were transferred to FiltrEX™ 96 Well Filter Plates with 0.66 mm Thick Glass Fiber Filter (available from Corning Life Sciences, Cat. No. 3511) and a vacuum was applied. […] The cell lysis was then subjected to the appropriate protein analysis and/or fluorescence analysis to characterize the activity of Organic Anion-Transporting Polypeptide 1B1.

Compound | uptake activity / transport compared to OATP1B1*1a cells (in words) [1] | Uptake Activity OATP1B1 [2] [pmol/mg/min] | Uptake Ratio [2]
C[C@]12CC[C@@H]3c4ccc(O)cc4CC[C@H]3[C@@H]1CC[C@@H]2O[C@@H]1O[C@H](C(=O)O)[C@@H](O)[C@H](O)[C@H]1O [E17βG] | Significantly impaired transport | 2.19 | –
fluorescein methotrexate [FMTX] | Significantly impaired transport | 0.46 | 6.8
